Assay results as given in US8183262B2, “Pyridine derivatives as mGluR2 antagonists” (Hoffmann-La Roche Inc., priority 2007, dated 2012).

Tests used:
rat mGlu2 receptor = target: T1, rat mGlu2 receptor (Rattus norvegicus, UniProt P31421); assay: [3H]-LY354740 binding on mGlu2 transfected CHO cell membranes; conditions: inhibition of 10 nM [3H]-LY354740 binding, membranes of CHO cells transfected with rat mGlu2, room temperature, 1 hour
T1 construct: expressed in transfected cells; membranes prepared
T1 sequence (P31421 19-872): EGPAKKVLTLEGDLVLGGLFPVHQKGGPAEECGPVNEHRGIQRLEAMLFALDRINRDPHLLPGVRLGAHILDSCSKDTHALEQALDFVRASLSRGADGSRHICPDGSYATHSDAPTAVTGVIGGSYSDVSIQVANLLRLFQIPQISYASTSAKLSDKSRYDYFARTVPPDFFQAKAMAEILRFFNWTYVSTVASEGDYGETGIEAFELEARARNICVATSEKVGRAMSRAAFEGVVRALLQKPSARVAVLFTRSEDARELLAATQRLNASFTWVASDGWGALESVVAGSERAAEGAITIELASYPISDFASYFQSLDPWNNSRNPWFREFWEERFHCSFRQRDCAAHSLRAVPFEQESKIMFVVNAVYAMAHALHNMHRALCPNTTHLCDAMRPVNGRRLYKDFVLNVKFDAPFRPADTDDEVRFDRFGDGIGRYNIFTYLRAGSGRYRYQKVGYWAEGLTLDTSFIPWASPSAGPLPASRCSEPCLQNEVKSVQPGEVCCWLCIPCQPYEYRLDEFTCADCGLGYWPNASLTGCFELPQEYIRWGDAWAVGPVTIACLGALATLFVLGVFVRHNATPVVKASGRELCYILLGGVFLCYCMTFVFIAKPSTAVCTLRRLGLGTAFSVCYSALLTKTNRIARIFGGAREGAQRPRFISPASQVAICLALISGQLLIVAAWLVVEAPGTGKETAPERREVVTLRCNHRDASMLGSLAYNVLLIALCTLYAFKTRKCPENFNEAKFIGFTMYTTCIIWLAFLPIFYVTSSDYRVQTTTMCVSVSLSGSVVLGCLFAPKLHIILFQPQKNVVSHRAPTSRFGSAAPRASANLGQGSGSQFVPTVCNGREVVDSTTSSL
Description: [^3H]-LY354740 Binding on mGlu2 Transfected CHO Cell Membranes. Transfection and Cell Culture
cDNA encoding the rat mGlu2 receptor protein in pBluescript II was subcloned into the eukaryotic expression vector pcDNA I-amp from Invitrogen Ltd (Paisley, UK). This vector construct (pcD1mGR2) was co-transfected with a psvNeo plasmid encoding the gene for neomycin resistance, into CHO cells by a modified calcium phosphate method described by Chen & Okayama (1988). The cells were maintained in Dulbecco's Modified Eagle medium with reduced L-glutamine (1 mM final concentration), 36 mg/L L-Proline and 10% dialysed foetal calf serum from Gibco-Invitrogen; the medium was supplemented with 500 microM α-methyl-4-carboxyphenylglycine (MCPG). Selection was made in the presence of G-418 (300 ug/ml final concentration). Clones were identified by reverse transcription of 5 μg total RNA, followed by PCR using mGlu2 receptor specific primers 5′-[…]-3′ and 5′-[…]-3′ in 60 mM Tris HCl (pH 10), 15 mM (NH4)2SO4, 2 mM MgCl2, 25 units/ml Taq Polymerase with 30 cycles annealing at 60° C. for 1 min., extention at 72° C. for 30 s, and 1 min. 95° C. denaturation.
Cells, cultured as above, were harvested and washed three times with cold PBS and frozen at −80° C. The pellet was resuspended in cold 20 mM HEPES-NaOH buffer containing 10 mM EDTA (pH 7.4), and homogenised with a polytron (Kinematica, A G, Littau, Switzerland) for 10 s at 10 000 rpm. After centrifugation for 30 min. at 4° C., the pellet was washed once with cold 20 mM HEPES-NaOH buffer containing 0.1 mM EDTA, (pH 7.4). After a second centrifugation for 30 min. at 4° C. the pellet was resuspended in cold 20 mM HEPES-NaOH buffer containing 0.1 mM EDTA, (pH 7.4). Protein content was measured using the Micro BCA method from Pierce-Perbio (Rockford, Ill., USA) using bovine serum albumin as standard.
After thawing, the membranes were resuspended in cold 50 mM Tris-HCl buffer containing 2 mM MgCl2 (pH 7.4) (binding buffer). The final concentration of the membranes in the assays was 25 μg protein/ml. Inhibition experiments were performed with membranes incubated with 10 nM [^3H]-LY354740 at room temperature, for 1 hour, in presence of various concentrations of the compound to be tested. Following the incubations, membranes were filtered onto Whatmann GF/B glass fiber filters or onto GF/B Unifilter plates and washed 5 times with cold binding buffer. Non specific binding was measured in the presence of 10 μM (2S,2′R,3′R)-2-(2′3′-Dicarboxycyclopropyl)glycine (DCG IV from Tocris, Ellisville, Mo. USA). After transfer of the filters into plastic vials containing 10 ml of Ultima-gold scintillation fluid from Perkin-Elmer (Boston, Mass., USA), the radioactivity was measured by liquid scintillation in a Tri-Carb 2500 TR counter (Packard, Zürich, Switzerland). For 96-Unifilter plates the radioactivity was measured after addition of Microscint 40 scintillation fluid (Perkin Elmer, Boston Mass.) using a TopCount NXT (Packard)
The inhibition curves were fitted with a four parameter logistic equation giving IC50 values, and Hill coefficients.

Ki (rat mGlu2 receptor)	melting point	Structure (SMILES)
1 nM	186 °C	Cc1cc(-c2ccc(C(F)(F)F)cc2)cc(-c2cccc(-c3cccc(S(C)(=O)=O)c3)n2)n1 [Example 356, 6′-(3-Methanesulfonyl-phenyl)-6-methyl-4-(4-trifluoromethyl-phenyl)-[2,2′]bipyridinyl]
47 nM	162 °C	FC(F)(F)c1cc(-c2ccc(Cl)cc2)nc(-c2cccc(-c3cccnc3)c2)n1 [Example 34, 4-(4-Chloro-phenyl)-2-(3-pyridin-3-yl-phenyl)-6-trifluoromethyl-pyrimidine]
25 nM	205 °C	NS(=O)(=O)c1cccc(-c2nc(-c3nc(-c4ccc(C(F)(F)F)cc4)cc(C(F)(F)F)n3)no2)c1 [Example 10, 3-{3-[4-Trifluoromethyl-6-(4-trifluoromethyl-phenyl)-pyrimidin-2-yl]-[1,2,4]oxadiazol-5-yl}-benzenesulfonamide]
87 nM	217 °C	Cc1cc(-c2ccc(C(F)(F)F)cc2)nc(-c2cccc(-c3cncc(S(N)(=O)=O)c3)c2)c1 [Example 275, 5-{3-[4-Methyl-6-(4-trifluoromethyl-phenyl)-pyridin-2-yl]-phenyl}-pyridine-3-sulfonic acid amide]
4 nM		Cc1cc(-c2ccc(C(F)(F)F)cc2)cc(-c2ccnc(-c3cccc(NS(C)(=O)=O)c3)n2)n1 [Example 330, N-(3-{4-[6-Methyl-4-(4-trifluoromethyl-phenyl)-pyridin-2-yl]-pyrimidin-2-yl}-phenyl)-methanesulfonamide]
9 nM		Cc1cc(-c2ccc(C(F)(F)F)cc2)cc(-c2ccnc(-c3cccc([N+](=O)[O-])c3)n2)n1 [Example 322, 4-[6-Methyl-4-(4-trifluoromethyl-phenyl)-pyridin-2-yl]-2-(3-nitro-phenyl)-pyrimidine]
71 nM		Nc1ccc(-c2ncn(-c3cc(C(F)(F)F)cc(-c4ccc(C(F)(F)F)cc4)n3)n2)cn1 [Example 277, 5-{1-[4-Trifluoromethyl-6-(4-trifluoromethyl-phenyl)-pyridin-2-yl]-1H-[1,2,4]triazol-3-yl}-pyridin-2-ylamine]
	167 °C	Cc1cc(-c2ccc(C(F)(F)F)cc2)cc(-c2cccc(-c3cccc(N)c3)n2)n1 [Example 327, 3-[6′-Methyl-4′-(4-trifluoromethyl-phenyl)-[2,2′]bipyridinyl-6-yl]-phenylamine]
	201 °C	O=S(=O)(NCCc1ccccc1)c1cccc(-c2cc(-c3nc(-c4ccc(C(F)(F)F)cc4)cc(C(F)(F)F)n3)ccn2)c1 [Example 406, N-Phenethyl-3-{4-[4-trifluoromethyl-6-(4-trifluoromethyl-phenyl)-pyrimidin-2-yl]-pyridin-2-yl}-benzenesulfonamide]
	162 °C (dec.)	Cc1cc(-c2ccc(C(F)(F)F)cc2)cc(-c2ccnc(-c3cccc(N)c3)c2)n1 [Example 307, 3-[6-Methyl-4-(4-trifluoromethyl-phenyl)-[2,4′]bipyridinyl-2′-yl]-phenylamine]
	103 °C	Cc1cc(-c2ccc(C(F)(F)F)cc2)cc(-c2nccs2)n1 [Example 251, 2-Methyl-6-thiazol-2-yl-4-(4-trifluoromethyl-phenyl)-pyridine]
	225 °C	CN(C)S(=O)(=O)c1cccc(-c2cc(-c3nc(-c4ccc(C(F)(F)F)cc4)cc(C(F)(F)F)n3)ccn2)c1 [Example 401, N,N-Dimethyl-3-{4-[4-trifluoromethyl-6-(4-trifluoromethyl-phenyl)-pyrimidin-2-yl]-pyridin-2-yl}-benzenesulfonamide]

Continued, molecule first:

Structure (SMILES)	Ki (rat mGlu2 receptor)	melting point
Cc1cc(-c2ccc(C(F)(F)F)cc2)cc(-c2ccnc(-c3cccc(NS(N)(=O)=O)c3)n2)n1 [Example 338, N-(3-{4-[6-Methyl-4-(4-trifluoromethyl-phenyl)-pyridin-2-yl]-pyrimidin-2-yl}-phenyl)-sulfamide]	1 nM	
CS(=O)(=O)Nc1cccc(-c2cccc(-c3nc(-c4ccc(C(F)(F)F)cc4)cc(C(F)(F)F)n3)c2)c1 [Example 223, N-{3′-[4-Trifluoromethyl-6-(4-trifluoromethyl-phenyl)-pyrimidin-2-yl]-biphenyl-3-yl}-methanesulfonamide]	13 nM	191 °C
Cc1cc(-c2ccc(C(F)(F)F)cc2)cc(-c2cccc(-c3cccc(S(=O)(=O)O)c3)n2)n1 [Example 345, 3-[6′-Methyl-4′-(4-trifluoromethyl-phenyl)-[2,2′]bipyridinyl-6-yl]-benzenesulfonic acid]	0.7 nM	
CC(C)(C)NS(=O)(=O)c1cccc(-c2cn(-c3cc(C(F)(F)F)cc(-c4ccc(C(F)(F)F)cc4)n3)cn2)c1 [Example 280, N-tert-Butyl-3-{1-[4-trifluoromethyl-6-(4-trifluoromethyl-phenyl)-pyridin-2-yl]-1H-imidazol-4-yl}-benzenesulfonamide]	3 nM	
Cc1cc(-c2ccc(C(F)(F)F)cc2)cc(-c2cccc(-c3cccc(NS(=O)(=O)NC(=O)OC(C)(C)C)c3)n2)n1 [Example 334, N-(tert-Butoxycarbonyl)-N′-{3-[6′-methyl-4′-(4-trifluoromethyl-phenyl)-[2,2′]bipyridinyl-6-yl]-phenyl}-sulfamide]	11 nM	
NS(=O)(=O)c1cccc(-c2cccc(-c3nc(-c4ccc(Cl)cc4)cc(C(F)(F)F)n3)c2)c1 [Example 178, 3′-[4-(4-Chloro-phenyl)-6-trifluoromethyl-pyrimidin-2-yl]-biphenyl-3-sulfonic acid amide]		165 °C
CC(C)(C)NS(=O)(=O)c1cccc(-c2cccc(-c3nc(-c4ccc(C(F)(F)F)cc4)cc(C(F)(F)F)n3)n2)c1 [Example 362, N-tert-Butyl-3-{6-[4-trifluoromethyl-6-(4-trifluoromethyl-phenyl)-pyrimidin-2-yl]-pyridin-2-yl}-benzenesulfonamide]		75 °C
NS(=O)(=O)c1ccc(-c2noc(-c3nc(-c4ccc(Cl)cc4)cc(C(F)(F)F)n3)n2)cc1 [Example 17, 4-{5-[4-(4-Chloro-phenyl)-6-trifluoromethyl-pyrimidin-2-yl]-[1,2,4}oxadiazol-3-yl]-benzenesulfonamide]		289.5 °C
Nc1ccc(-c2cnn(-c3nc(-c4ccc(C(F)(F)F)cc4)cc(C(F)(F)F)n3)c2)cn1 [Example 19, 5-{1-[4-Trifluoromethyl-6-(4-trifluoromethyl-phenyl)-pyrimidin-2-yl]-1H-pyrazol-4-yl}-pyridin-2-ylamine]		206 °C
Cc1cc(-c2ccc(C(F)(F)F)cc2)cc(-c2cccc(-c3cccc(S(=O)(=O)NC(=O)C(C)C)c3)n2)n1 [Example 455, N-Isobutyryl-3-[6′-methyl-4′-(4-trifluoromethyl-phenyl)-[2,2′]bipyridinyl-6-yl]-benzenesulfonamide]		190 °C
Cc1cc(-c2ccc(Cl)c(Cl)c2)nc(-n2cnc(-c3ccc(S(N)(=O)=O)s3)c2)n1 [Example 216, 5-{1-[4-(3,4-Dichloro-phenyl)-6-methyl-pyrimidin-2-yl]-1H-imidazol-4-yl}-thiophene-2-sulfonic acid amide]		253.5 °C
Cc1cc(-c2ccc(Cl)cc2)nc(-c2ccnc(-c3cccc(S(N)(=O)=O)c3)c2)n1 [Example 189, 3-{4-[4-(4-Chloro-phenyl)-6-methyl-pyrimidin-2-yl]-pyridin-2-yl}-benzenesulfonamide]		224 °C
